How the values were obtained:
[1] = system: paddy rice varieties Habataki, Takanari, Momiroman, Mizuhochikara, Ruriaoba and Odorokimochi; conditions: Japanese Journal of Crop Science 79 (Extra 1); cited from earlier work
Scirpus juncoides Roxb. [2] = assay: Test Example 5: pot test, herbicide-treated seed, growth inhibition; type: in vivo; conditions: 20 days after sowing, dosage a.i. g per 1 kg of seeds: Sulcotrione 1.0, Imazosulfuron 1.0, Oxadiargyl 0.15
Source text: (§3) In 100 cm^2 of a pot was filled a paddy field soil, and after paddling, seeds of Lindernia procumbens and Scirpus juncoides Roxb. were sown and mixed into the surface layer of the soil. Paddy rice seeds (variety: Nipponbare) sprouted into a pigeon breast shape were dust-coated with a predetermined amount of wettable powder each prepared according to Preparation examples 3, 4 and 8, and were sown onto the surface of the soil or into the soil (depth: 1 cm) at an amount of 10 grains/pot. After the sowing, water was introduced quietly and flooded up to 1 cm. After 20 days from the sowing, a growth inhibition rate was judged according to the following judgement criteria.

Lindernia procumbens [3] = assay: as above; type: in vivo; conditions: 20 days after sowing, dosage a.i. g per 1 kg of seeds: Sulcotrione 1.0, Imazosulfuron 1.0, Oxadiargyl 0.15
Source text: as §3

Lindernia procumbens [4] = assay: Test Example 2: pot test, iron powder-coated herbicide-treated seed, growth inhibition; type: in vivo; conditions: surface sowing, 21 days after sowing, dosage a.i. g per 1 kg of seeds: Pyrazolate 150, Compound (I) 38, Sulcotrione 1.0, Imazosulfuron 1.0
Protocol: (§1) Also, paddy rice seeds (variety: Koshihikari) dipped in 20° C. of water for 2 days were dust-coated with a mixture of iron powder and calcined gypsum (a mixing ratio of 10:1) with an amount of 100 g per 1 kg of the seeds (dried unhulled rice) to prepare iron powder-coated seeds.

Monochoria vaginalis [5] = assay: as above; type: in vivo; conditions: surface sowing, 21 days after sowing, dosage a.i. g per 1 kg of seeds: Pyrazolate 150, Compound (I) 38, Sulcotrione 1.0, Imazosulfuron 1.0
Protocol: as §1

[6] = system: Paddy rice (variety: Koshihikari); assay: Test Example 2: pot test, iron powder-coated seed, growth inhibition of the paddy rice; type: in vivo; conditions: surface sowing, 21 days after sowing, dosage a.i. g per 1 kg of seeds: Pyrazolate 150, Compound (I) 38, Sulcotrione 1.0, Imazosulfuron 1.0
Protocol: as §1

[7] = system: Paddy rice (variety: Nipponbare); assay: Test Example 5: pot test, growth inhibition of the paddy rice; type: in vivo; conditions: 20 days after sowing, dosage a.i. g per 1 kg of seeds: Sulcotrione 1.0, Imazosulfuron 1.0, Oxadiargyl 0.15
Source text: as §3

Echinochloa oryzicola [8] = assay: Test Example 7: pot test, seed dust-coated with COMMAND3ME, growth inhibition; type: in vivo; conditions: Surface sowing; 21 days after sowing; dosage 2.5 a.i. g per 1 kg of seeds (as COMMAND3ME)
Source text: In 100 cm^2 of a pot was filled a paddy field soil, and after paddling, seeds of Echinochloa oryzicola was sown and mixed into the surface layer of the soil. Paddy rice seeds (variety: Nipponbare) sprouted into a pigeon breast shape were dust-coated with a predetermined amount of COMMAND3ME™ (clomazone: 31.4%, available from FMC Corporation), and were sown onto the surface of the soil at an amount of 10 grains/pot. After the sowing, water was introduced quietly and flooded up to 1 cm. After 21 days from the sowing, a growth inhibition rate was judged according to the above-mentioned judgement criteria.

Scirpus juncoides Roxb. [9] = assay: Test Example 6: pot test, herbicide-treated seed, growth inhibition; type: in vivo; conditions: 20 days after sowing, dosage a.i. g per 1 kg of seeds: Pyrimisulfan 0.5, Pyriminobac-methyl 1.5, Butachlor 1.25
Source text: (§4) In 100 cm^2 of a pot was filled a paddy field soil, and after paddling, seeds of Echinochloa oryzicola and Scirpus juncoides Roxb. were sown and mixed into the surface layer of the soil. Paddy rice seeds (variety: Nipponbare) sprouted into a pigeon breast shape were dust-coated with a predetermined amount of wettable powder each prepared according to Preparation examples 5, 6 and 9, and were sown onto the surface of the soil or into the soil (depth: 1 cm) at an amount of 10 grains/pot. After the sowing, water was introduced quietly and flooded up to 1 cm. After 20 days from the sowing, a growth inhibition rate was judged according to the above-mentioned judgement criteria.

Echinochloa oryzicola [10] = assay: Test Example 3: pot test, iron powder-coated herbicide-treated seed, growth inhibition; type: in vivo; conditions: surface sowing, 22 days after sowing, dosage a.i. g per 1 kg of seeds: Pyrimisulfan 0.5, Pyriminobac-methyl 1.5
Protocol: as §1

Scirpus juncoides Roxb. [11] = assay: as above; type: in vivo; conditions: surface sowing, 22 days after sowing, dosage a.i. g per 1 kg of seeds: Pyrimisulfan 0.5, Pyriminobac-methyl 1.5
Protocol: as §1

[12] = system: Paddy rice (variety: Nipponbare); assay: Test Example 6: pot test, growth inhibition of the paddy rice; type: in vivo; conditions: 20 days after sowing, dosage a.i. g per 1 kg of seeds: Pyrimisulfan 0.5, Pyriminobac-methyl 1.5, Butachlor 1.25
Source text: as §4

Echinochloa oryzicola [13] = assay: Test Example 6: pot test, herbicide-treated seed, growth inhibition; type: in vivo; conditions: 20 days after sowing, dosage a.i. g per 1 kg of seeds: Pyrimisulfan 0.5, Pyriminobac-methyl 1.5, Butachlor 1.25
Source text: as §4

[14] = system: Paddy rice (variety: Koshihikari); assay: Test Example 3: pot test, iron powder-coated seed, growth inhibition of the paddy rice; type: in vivo; conditions: surface sowing, 22 days after sowing, dosage a.i. g per 1 kg of seeds: Pyrimisulfan 0.5, Pyriminobac-methyl 1.5
Protocol: as §1

Lindernia procumbens [15] = assay: Test Example 10: pot test, seed treated with herbicide with or without dymron, growth inhibition; type: in vivo; conditions: Surface sowing; 20 days after sowing; dosage a.i. g per 1 kg of seeds: Pyrimisulfan + Dymron 1 + 40, Pyrimisulfan 1
Source text: (§2) In 100 cm^2 of a pot was filled a paddy field soil, and after paddling, seeds of Monochoria vaginalis and Lindernia procumbens were sown and mixed into the surface layer of the soil. Paddy rice seeds (variety: Nipponbare) sprouted into a pigeon breast shape were dust-coated with a predetermined amount of wettable powder each prepared according to Preparation examples 5 and 11, and were sown onto the surface of the soil at an amount of 10 grains/pot. After the sowing, water was introduced quietly and flooded up to 1 cm. After 20 days from the sowing, a growth inhibition rate was judged according to the above-mentioned judgement criteria.

Monochoria vaginalis [16] = assay: as above; type: in vivo; conditions: Surface sowing; 20 days after sowing; dosage a.i. g per 1 kg of seeds: Pyrimisulfan + Dymron 1 + 40, Pyrimisulfan 1
Source text: as §2

[17] = system: Paddy rice (variety: Nipponbare); assay: Test Example 1: pot test, growth inhibition (chemical damage) of the paddy rice; type: in vivo; conditions: 30 days after sowing, dosage a.i. g per 1 kg of seeds: Pyrazolate 150, Compound (I) 37.5, Thenylchlor 0.63
Source text: as §2, with “Preparation examples 1, 2 and 7,” for “Preparation examples 5 and 11,”, “2 and 7, and were” for “5 and 11, and were”, “the soil or into the soil (depth: 1 cm) at an” for “the soil at an”, “cm. After 30 days from” for “cm. After 20 days from”, “to the following judgement criteria.” for “to the above-mentioned judgement criteria.”

Lindernia procumbens [18] = assay: Test Example 1: pot test, herbicide-treated paddy rice seed, growth inhibition; type: in vivo; conditions: 30 days after sowing, dosage a.i. g per 1 kg of seeds: Pyrazolate 150, Compound (I) 37.5, Thenylchlor 0.63
Source text: as §2, with “Preparation examples 1, 2 and 7,” for “Preparation examples 5 and 11,”, “2 and 7, and were” for “5 and 11, and were”, “the soil or into the soil (depth: 1 cm) at an” for “the soil at an”, “cm. After 30 days from” for “cm. After 20 days from”, “to the following judgement criteria.” for “to the above-mentioned judgement criteria.”

Monochoria vaginalis [19] = assay: as above; type: in vivo; conditions: 30 days after sowing, dosage a.i. g per 1 kg of seeds: Pyrazolate 150, Compound (I) 37.5, Thenylchlor 0.63
Source text: as §2, with “Preparation examples 1, 2 and 7,” for “Preparation examples 5 and 11,”, “2 and 7, and were” for “5 and 11, and were”, “the soil or into the soil (depth: 1 cm) at an” for “the soil at an”, “cm. After 30 days from” for “cm. After 20 days from”, “to the following judgement criteria.” for “to the above-mentioned judgement criteria.”

[20] = Surface sowing of treated rice seed

## CS(=O)(=O)c1ccc(C(=O)C2=C(Sc3ccccc3)C3CCC(C3)C2=O)c(Cl)c1 (stereo not shown) [benzobicyclon]
[1]
  Sensitivity of paddy rice variety to the herbicide: show sensitivity

## COc1cc(OC)nc(NC(=O)NS(=O)(=O)c2c(Cl)nc3ccccn23)n1 [Imazosulfuron, imazosulfuron]
Scirpus juncoides Roxb. [2]; Sowing into soil (depth 1 cm)
  Growth inhibition rate, Scirpus juncoides Roxb.: 9 (Growth inhibition rate of 82 to 90%)
Scirpus juncoides Roxb. [2]; Surface sowing
  Growth inhibition rate, Scirpus juncoides Roxb.: 10 (Growth inhibition rate of 91 to 100%)
Lindernia procumbens [3]; Sowing into soil (depth 1 cm)
  Growth inhibition rate, Lindernia procumbens: 10 (Growth inhibition rate of 91 to 100%)
Lindernia procumbens [3]; Surface sowing
  Growth inhibition rate, Lindernia procumbens: 10 (Growth inhibition rate of 91 to 100%)
Lindernia procumbens [4]
  Growth inhibition rate, Lindernia procumbens: 10 (Growth inhibition rate of 91 to 100%)
Monochoria vaginalis [5]
  Growth inhibition rate, Monochoria vaginalis: 10 (Growth inhibition rate of 91 to 100%)

## CS(=O)(=O)c1ccc(C(=O)C2C(=O)CCCC2=O)c(Cl)c1 [Sulcotrione, sulcotrione]
Scirpus juncoides Roxb. [2]; Sowing into soil (depth 1 cm)
  Growth inhibition rate, Scirpus juncoides Roxb.: 8 (Growth inhibition rate of 73 to 81%)
Scirpus juncoides Roxb. [2]; Surface sowing
  Growth inhibition rate, Scirpus juncoides Roxb.: 9 (Growth inhibition rate of 82 to 90%)
Lindernia procumbens [3]; Sowing into soil (depth 1 cm)
  Growth inhibition rate, Lindernia procumbens: 10 (Growth inhibition rate of 91 to 100%)
Lindernia procumbens [3]; Surface sowing
  Growth inhibition rate, Lindernia procumbens: 10 (Growth inhibition rate of 91 to 100%)
[6]
  Growth inhibition rate, Paddy rice: 0 (Growth inhibition rate of 0 to 9%)
[7]; Sowing into soil (depth 1 cm)
  Growth inhibition rate, Paddy rice: 3 (Growth inhibition rate of 28 to 36%)
[7]; Surface sowing
  Growth inhibition rate, Paddy rice: 0 (Growth inhibition rate of 0 to 9%)
Lindernia procumbens [4]
  Growth inhibition rate, Lindernia procumbens: 10 (Growth inhibition rate of 91 to 100%)
Monochoria vaginalis [5]
  Growth inhibition rate, Monochoria vaginalis: 10 (Growth inhibition rate of 91 to 100%)

## CC1(C)CON(Cc2ccccc2Cl)C1=O [Clomazone, clomazone]
Echinochloa oryzicola [8]
  Growth inhibition rate, Echinochloa oryzicola: 9 (Growth inhibition rate of 82 to 90%)

## CS(=O)(=O)c1ccc(C(=O)C2C(=O)CCCC2=O)c([N+](=O)[O-])c1 [mesotrione]
[1]
  Sensitivity of paddy rice variety to the herbicide: show sensitivity

## CO/N=C(/C)c1cccc(Oc2nc(OC)cc(OC)n2)c1C(=O)OC [Pyriminobac-methyl, pyriminobac-methyl]
Scirpus juncoides Roxb. [9]; Sowing into soil (depth 1 cm)
  Growth inhibition rate, Scirpus juncoides Roxb.: 0 (Growth inhibition rate of 0 to 9%)
Scirpus juncoides Roxb. [9]; Surface sowing
  Growth inhibition rate, Scirpus juncoides Roxb.: 0 (Growth inhibition rate of 0 to 9%)
Echinochloa oryzicola [10]
  Growth inhibition rate, Echinochloa oryzicola: 10 (Growth inhibition rate of 91 to 100%)
Scirpus juncoides Roxb. [11]
  Growth inhibition rate, Scirpus juncoides Roxb.: 0 (Growth inhibition rate of 0 to 9%)
[12]; Sowing into soil (depth 1 cm)
  Growth inhibition rate, Paddy rice: 3 (Growth inhibition rate of 28 to 36%)
[12]; Surface sowing
  Growth inhibition rate, Paddy rice: 0 (Growth inhibition rate of 0 to 9%)
Echinochloa oryzicola [13]; Sowing into soil (depth 1 cm)
  Growth inhibition rate, Echinochloa oryzicola: 10 (Growth inhibition rate of 91 to 100%)
Echinochloa oryzicola [13]; Surface sowing
  Growth inhibition rate, Echinochloa oryzicola: 10 (Growth inhibition rate of 91 to 100%)
[14]
  Growth inhibition rate, Paddy rice: 0 (Growth inhibition rate of 0 to 9%)

## oxadiargyl
Scirpus juncoides Roxb. [2]; Sowing into soil (depth 1 cm)
  Growth inhibition rate, Scirpus juncoides Roxb.: 1 (Growth inhibition rate of 10 to 18%)
Scirpus juncoides Roxb. [2]; Surface sowing
  Growth inhibition rate, Scirpus juncoides Roxb.: 2 (Growth inhibition rate of 19 to 27%)
Lindernia procumbens [3]; Sowing into soil (depth 1 cm)
  Growth inhibition rate, Lindernia procumbens: 10 (Growth inhibition rate of 91 to 100%)
Lindernia procumbens [3]; Surface sowing
  Growth inhibition rate, Lindernia procumbens: 10 (Growth inhibition rate of 91 to 100%)

## COCc1cccc(C(O)c2nc(OC)cc(OC)n2)c1NS(=O)(=O)C(F)F (stereo not shown) [Pyrimisulfan, pyrimisulfan]
Scirpus juncoides Roxb. [9]; Sowing into soil (depth 1 cm)
  Growth inhibition rate, Scirpus juncoides Roxb.: 10 (Growth inhibition rate of 91 to 100%)
Scirpus juncoides Roxb. [9]; Surface sowing
  Growth inhibition rate, Scirpus juncoides Roxb.: 10 (Growth inhibition rate of 91 to 100%)
Echinochloa oryzicola [10]
  Growth inhibition rate, Echinochloa oryzicola: 10 (Growth inhibition rate of 91 to 100%)
Scirpus juncoides Roxb. [11]
  Growth inhibition rate, Scirpus juncoides Roxb.: 10 (Growth inhibition rate of 91 to 100%)
Lindernia procumbens [15]
  Growth inhibition rate, Lindernia procumbens: 10 (Growth inhibition rate of 91 to 100%)
Monochoria vaginalis [16]
  Growth inhibition rate, Monochoria vaginalis: 10 (Growth inhibition rate of 91 to 100%)
Echinochloa oryzicola [13]; Sowing into soil (depth 1 cm)
  Growth inhibition rate, Echinochloa oryzicola: 8 (Growth inhibition rate of 73 to 81%)
Echinochloa oryzicola [13]; Surface sowing
  Growth inhibition rate, Echinochloa oryzicola: 10 (Growth inhibition rate of 91 to 100%)

## Cc1cccc(C2CC2)c1Oc1nnc(Cl)cc1OC(=O)N1CCOCC1 [Compound (I), 6-chloro-3-(2-cyclopropyl-6-methylphenoxy)pyridazin-4-yl morpholin-4-carboxylate]
[17]; Sowing into soil (depth 1 cm)
  Growth inhibition rate, Paddy rice: 5 (Growth inhibition rate of 46 to 54%)
[17]; Surface sowing
  Growth inhibition rate, Paddy rice: 0 (Growth inhibition rate of 0 to 9%)
[6]
  Growth inhibition rate, Paddy rice: 0 (Growth inhibition rate of 0 to 9%)
Lindernia procumbens [4]
  Growth inhibition rate, Lindernia procumbens: 10 (Growth inhibition rate of 91 to 100%)
Monochoria vaginalis [5]
  Growth inhibition rate, Monochoria vaginalis: 10 (Growth inhibition rate of 91 to 100%)
Lindernia procumbens [18]; Sowing into soil (depth 1 cm)
  Growth inhibition rate, Lindernia procumbens: 8 (Growth inhibition rate of 73 to 81%)
Lindernia procumbens [18]; [20]
  Growth inhibition rate, Lindernia procumbens: 10 (Growth inhibition rate of 91 to 100%)
Monochoria vaginalis [19]; Sowing into soil (depth 1 cm)
  Growth inhibition rate, Monochoria vaginalis: 9 (Growth inhibition rate of 82 to 90%)
Monochoria vaginalis [19]; [20]
  Growth inhibition rate, Monochoria vaginalis: 10 (Growth inhibition rate of 91 to 100%)

## COc1ccsc1CN(C(=O)CCl)c1c(C)cccc1C [Thenylchlor, thenylchlor]
[17]; Sowing into soil (depth 1 cm)
  Growth inhibition rate, Paddy rice: 9 (Growth inhibition rate of 82 to 90%)
[17]; Surface sowing
  Growth inhibition rate, Paddy rice: 6 (Growth inhibition rate of 55 to 63%)
Lindernia procumbens [18]; Sowing into soil (depth 1 cm)
  Growth inhibition rate, Lindernia procumbens: 8 (Growth inhibition rate of 73 to 81%)
Lindernia procumbens [18]; [20]
  Growth inhibition rate, Lindernia procumbens: 9 (Growth inhibition rate of 82 to 90%)
Monochoria vaginalis [19]; Sowing into soil (depth 1 cm)
  Growth inhibition rate, Monochoria vaginalis: 6 (Growth inhibition rate of 55 to 63%)
Monochoria vaginalis [19]; [20]
  Growth inhibition rate, Monochoria vaginalis: 7 (Growth inhibition rate of 64 to 72%)

## CCCCOCN(C(=O)CCl)c1c(CC)cccc1CC [Butachlor, butachlor]
Scirpus juncoides Roxb. [9]; Sowing into soil (depth 1 cm)
  Growth inhibition rate, Scirpus juncoides Roxb.: 0 (Growth inhibition rate of 0 to 9%)
Scirpus juncoides Roxb. [9]; Surface sowing
  Growth inhibition rate, Scirpus juncoides Roxb.: 0 (Growth inhibition rate of 0 to 9%)
Echinochloa oryzicola [13]; Sowing into soil (depth 1 cm)
  Growth inhibition rate, Echinochloa oryzicola: 5 (Growth inhibition rate of 46 to 54%)
Echinochloa oryzicola [13]; Surface sowing
  Growth inhibition rate, Echinochloa oryzicola: 7 (Growth inhibition rate of 64 to 72%)
